Test results: patent publication US20240182333A1, “METHODS OF TREATING COMPOUNDS USING VISIBLE LIGHT-ENABLED ACTIVATION OF PEROXYDISULFATE” (THE TEXAS A&M UNIVERSITY SYSTEM, priority 2022, published 2024)

How the values were obtained:
[1] = Degradation of compounds by PDS in dark and under visible light (HPLC); assay type: physicochemical; conditions: for pseudo-first-order rate constant kobs of ATZ degradation: [ATZ]0=10.0 μM, [PDS]0=5.0 mM, pH0=7.0, 25° C.
Procedure: Various reactions were carried out in 40 mL glass tubes with constant stirring at 300 rpm at 25±0.5° C. The temperature of solutions was monitored using a thermometer throughout the experiments. The initial concentration of atrazine (ATZ) was 10.0 uM, and the initial concentration of PDS was 5.0 mM. The irradiation fluxes emitted from the lamp and received by the solutions were measured with a LS125 UV light meter (Linshang Technology, Shenzhen, China) and a Solar Light PMA2100 radiometer (Solar Light Company, Philadelphia,
(§1) USA) 10 cm away from the lamp. The tubes in the dark treatments were covered with aluminum foil. To further confirm the PDS activation by visible light, experiments were also conducted with a UV filter film covering the simulated sunlight lamp to eliminate the effect of UV light. 1.0 mL of sample was withdrawn from each tube at different elapsed times (t=0, 1, 2, 3, 4, 5, 10, 20, 30, 60, 90, 120, and 240 min) and immediately quenched by 20 μL of 5.0 M sodium thiosulfate. The concentrations of all compositions in collected samples were measured with a Dionex UltiMate 3000 high-performance liquid chromatograph (HPLC) (Sunnyvale, USA). The settings of HPLC are provided in Example 1. The change in the concentration of PDS under different conditions was determined spectrophotometrically via an oxidation decolorization method and a modified iodometric titration method, respectively. The initial and final pH in each tube were measured with an Accumet AE150 pH meter (Westford, USA).
A simulated sunlight lamp was used as the light source in the instant example. The light fluxes that reaction solutions received in glass vials contained 39.8±0.5×10^−3 W/cm^2 of visible light in the wavelength (λ) range of 400-700 nm. The fluxes in the UV ranges contained 8.1±0.2×10^−6 W/cm^2 of UV-A (λ=315-400 nm) and 2.5±0.4×10^−6 W/cm^2 of UV-B (λ=280-315 nm), respectively. The UV-C flux (λ=230-280 nm) was negligible. Based on the flux measurement, UV light only accounted for <0.03% of the total light flux, and thus the light source utilized herein represents almost exclusively the visible light. The chemistry of PDS with visible light irradiation (PDS Light) and without (PDS Dark) was explored using six common herbicides and pharmaceuticals, namely atrazine (ATZ), sulfamethoxazole (SMX), trimethoprim (TMP), sulfadimethoxine (SDM), ibuprofen (IBP), and carbamazepine (CMZ) (FIGS. 1A-1F).

[2] = Quenching, anoxic and D2O experiments of ATZ degradation by PDS; assay type: physicochemical
Procedure: In order to identify the main reactive species involved in the degradation of ATZ by PDS under light and in dark, four quenchers were added in the beginning of the reactions to scavenge possible reactive species. The concentration of MeOH, tert-butanol (TBA), and L-histidine (L-his) was 0.5 M, and the concentration of superoxide dismutase (SOD) was 50 U·ml^−1. To analyze the impact of oxygen, purified N2 gas was used to purge the system for 10 min before the quenching experiments. All tubes were capped and then sealed with parafilm to maintain an anoxic environment throughout the reaction. The ATZ concentrations in the samples taken at various time points (t=0, 5, 10, 30, 60, 120, and 240 min) were measured using HPLC. The degradation of ATZ was also repeated with D2O as the solvent for phosphate buffer with the same experimental setups.

[3] = reported; cited from earlier work
[4] = Decay of PDS in dark and under visible light; assay type: physicochemical; conditions: for PDS decayed: within 240 min, regardless of the phosphate
Procedure: as §1
In order to verify whether PDS was directly activated by visible light, the impacts of solution constituents were examined. Because 10 mM phosphate buffer was added to control the initial pH to 7.0 to take into account of the typical pH of natural waters, the impact of phosphate buffer on the decay of PDS was investigated. […] Approximately 20% and 90% of PDS decayed within 240 min in dark and under visible light, respectively, regardless of the phosphate.

CCNc1nc(Cl)nc(NC(C)C)n1 [ATZ, 2-chloro-4-ethylamino-6-isopropylamino-s-triazine]
ATZ degraded ([1]; PDS Dark, within 30 min): 37% | pseudo-first-order rate constant kobs of ATZ degradation ([1]; PDS Dark): 0.72±0.09×10^−2 min^−1 | pseudo-first-order rate constants of ATZ degradation with UV filter versus without UV filter ([1]; PDS Light, UV filter film between lamp and vials): not statistically different | degradation of ATZ ([1]; PDS Light, in 30 min): complete degradation | pseudo-first-order rate constant kobs of ATZ degradation ([1]; PDS Light, oxic): 11±3.0×10^−2 min^−1 | ATZ degradation by PDS Light in presence of L-his ([2]; L-his 0.5 M): almost completely inhibited | effect of D2O on rate constant of ATZ degradation ([2]; PDS Dark): negligible | pseudo-first-order rate constant for ATZ degradation in D2O relative to water ([2]; PDS Light): more than 2.5 times | pseudo-first-order rate constant kobs of ATZ degradation ([2]; PDS Light, anoxic condition (N2 purging), without scavengers): 7.3±0.9×10^−2 min^−1 | ATZ degradation by PDS Light in presence of scavengers ([2]; all four scavengers (MeOH, TBA, L-his 0.5 M; SOD 50 U·ml^−1)): significantly hindered | k(SO4^●−/ATZ) [3]: 2.6−4.2×10^9 M^−1·s^−1

O=S(=O)([O-])OOS(=O)(=O)[O-].[K+].[K+] [PDS, Potassium peroxydisulfate]
rate constant for R1 (photolysis of PDS by light) ([4]; based on the rate constant of PDS decay in dark and under light): around 8.8±1.1×10^−3 min^−1 | PDS decayed ([4]; in dark): Approximately 20% | PDS decayed ([4]; under visible light): ~90%
